From patent US7637980B2, “Method of increasing photosynthesis in plants comprising an exposure thereof to lipochitooligosaccharides and compositions therefor” (McGill University, priority 1999, dated 2009)

Key:
Type in all cases: in vivo
soybean (cv Bayfield) [1] = assay: Photosynthesis of soybean after LCO foliar spray, greenhouse
Procedure: (§1) Soybean (cv Bayfield) seeds were surface sterilized with 2% sodium hypochlorite for 3-4 minutes, washed with several changes of sterile distilled water and germinated in plastic trays containing sterile vermiculite. Seedlings at the two-leaf stage, about seven days of planting, were transplanted into 15 cm plastic pots containing promix (Premier Brands Inc., New Rochelle, N.Y., USA). Pots were placed in a greenhouse maintained at 25±2° C. with a day/night cycle of 16/8 h. Plants were watered as required.
(§2) Concentrations of LCO (10^−6 M-10^−12 M) were made with distilled water containing 0.02% Tween 20. A control treatment, containing 0.02% Tween 20, but no LCO was also applied. Since the rates of growth and development differed among the plant species used in the experiments, spray treatment was conducted at different times after planting In general, the spray was applied when the plants were big enough to allow easy measurements of leaf photosynthetic rates. The following are the ages of the plants when the sprays were conducted: soybean 21 days after planting (DAP), corn 25 DAP, rice 45 DAP, melon (35 DAP) and canola 30 DAP. The plants were sprayed with LCO solutions until dripping. The sprays were applied with an atomizer (Nalgene, USA). Each plant required 2-3 mL of spray solution. Each treatment was replicated at least five times and organized on the green house bench in a randomized complete block design. Each experiment (with each crop species) was repeated at least twice.
(§3) Photosynthesis was recorded every 24 h using a Li-Cor 6400 portable photosynthesis system (Li-Cor Inc., Lincoln, Neb., USA) for 6 days. In the case of soybean the photosynthesis in the second nodal leaf from the top was recorded while in the other species used in the photosynthetic rate was measured for the top-most fully expanded leaf. Soybean plants were harvested after seven days of LCO treatment and dried at 80° C. for 48 h. Data were analyzed with the Statistical Analysis System (SAS Inc., N.C., USA). Percent increase in photosynthesis over the control was calculated.

soybean (cv Bayfield) [2] = assay: Leaf area and shoot dry weight of soybean after LCO spray, greenhouse; conditions: seven days after treatment
Procedure: as §1, §2, §3

[3] = test system: rice (Oryza sativa cv Cypress); assay: Photosynthesis of rice after LCO spray, greenhouse
Procedure: (§4) Seeds of rice (Oryza sativa cv Cypress), canola (Brassica napus cv Springfield), corn (Zea mays cv Pioneer 3921) and melon (Cucumis melo cv Nova) were surface sterilized with 2% sodium hypochlorite for 3-4 min, washed with several changes of sterile distilled water and planted in plastic pots (15 cm dia) containing promix (Premier Brands Inc., New Rochelle, N.Y., USA).
as §2, §3

[4] = test system: canola (Brassica napus cv Springfield); assay: Photosynthesis of canola after LCO spray, greenhouse
Procedure: as §4, §2, §3

[5] = test system: melon (Cucumis melo cv Nova); assay: Photosynthesis of melon after LCO spray, greenhouse
Procedure: as §4, §2, §3

apple (cv Empire) = assay: Photosynthesis of field-grown apple after LCO spray
Procedure: These experiments were conducted at the horticultural research facility of McGill University, Ste-Anne-de-Bellevue, Quebec, Canada during July 2000. LCO of different concentrations (10^−8, and 10^−10M) were prepared as described above. Branches of apple (cv Empire) and Grapes (cv De Chaunac) were sprayed with LCO and the photosynthesis was observed every 24 h for five days with a Li-Cor 6400 portable photosynthesis system (Li-Cor Inc., USA). Each treatment was applied to three branches from the same plant. Care was taken to ensure that the branches were on the same level and orientation. Part of each branch was sprayed with LCO and the remaining part served as a control. The control portion of the branch was sprayed with distilled water containing the same amount of Tween 20 as the LCO treatment solution. Observations were taken on 15 leaves per replicate for each treatment. For both apple and grape the entire procedure was repeated twice on two different plants.

Substance: Nod Bj V (C18:1, MeFeu)
- photosynthesis (soybean (cv Bayfield) [1]; 10^−6 M, day 1 after treatment): 14.9 μmol m^−2 sec^−1
- photosynthesis (soybean (cv Bayfield) [1]; 10^−6 M, day 2 after treatment): 12.1 μmol m^−2 sec^−1
- photosynthesis (soybean (cv Bayfield) [1]; 10^−6 M, day 4 after treatment): 16.2 μmol m^−2 sec^−1
- photosynthesis (soybean (cv Bayfield) [1]; 10^−6 M, day 5 after treatment): 16.7 μmol m^−2 sec^−1
- photosynthesis (soybean (cv Bayfield) [1]; 10^−6 M, day 6 after treatment): 13.1 μmol m^−2 sec^−1
- photosynthesis (soybean (cv Bayfield) [1]; 10^−7 M, day 1 after treatment): 12.1 μmol m^−2 sec^−1
- photosynthesis (soybean (cv Bayfield) [1]; 10^−7 M, day 2 after treatment): 9.1 μmol m^−2 sec^−1
- photosynthesis (soybean (cv Bayfield) [1]; 10^−7 M, day 4 after treatment): 12.9 μmol m^−2 sec^−1
- photosynthesis (soybean (cv Bayfield) [1]; 10^−7 M, day 5 after treatment): 14.1 μmol m^−2 sec^−1
- photosynthesis (soybean (cv Bayfield) [1]; 10^−7 M, day 6 after treatment): 11.1 μmol m^−2 sec^−1
- photosynthesis (soybean (cv Bayfield) [1]; 10^−8 M, day 1 after treatment): 13.8 μmol m^−2 sec^−1
- photosynthesis (soybean (cv Bayfield) [1]; 10^−8 M, day 2 after treatment): 8.1 μmol m^−2 sec^−1
- photosynthesis (soybean (cv Bayfield) [1]; 10^−8 M, day 4 after treatment): 12.3 μmol m^−2 sec^−1
- photosynthesis (soybean (cv Bayfield) [1]; 10^−8 M, day 5 after treatment): 16.4 μmol m^−2 sec^−1
- photosynthesis (soybean (cv Bayfield) [1]; 10^−8 M, day 6 after treatment): 10.3 μmol m^−2 sec^−1
- photosynthesis (soybean (cv Bayfield) [1]; 10^−9 M, day 1 after treatment): 15.8 μmol m^−2 sec^−1
- photosynthesis (soybean (cv Bayfield) [1]; 10^−9 M, day 2 after treatment): 8.4 μmol m^−2 sec^−1
- photosynthesis (soybean (cv Bayfield) [1]; 10^−9 M, day 4 after treatment): 15.7 μmol m^−2 sec^−1
- photosynthesis (soybean (cv Bayfield) [1]; 10^−9 M, day 5 after treatment): 17.5 μmol m^−2 sec^−1
- photosynthesis (soybean (cv Bayfield) [1]; 10^−9 M, day 6 after treatment): 11.2 μmol m^−2 sec^−1
- photosynthesis (soybean (cv Bayfield) [1]; 10^−10 M, day 1 after treatment): 13.6 μmol m^−2 sec^−1
- photosynthesis (soybean (cv Bayfield) [1]; 10^−10 M, day 2 after treatment): 8.7 μmol m^−2 sec^−1
- photosynthesis (soybean (cv Bayfield) [1]; 10^−10 M, day 4 after treatment): 14.6 μmol m^−2 sec^−1
- photosynthesis (soybean (cv Bayfield) [1]; 10^−10 M, day 5 after treatment): 16.9 μmol m^−2 sec^−1
- photosynthesis (soybean (cv Bayfield) [1]; 10^−10 M, day 6 after treatment): 11.2 μmol m^−2 sec^−1
- photosynthesis (soybean (cv Bayfield) [1]; 10^−11 M, day 1 after treatment): 14.0 μmol m^−2 sec^−1
- photosynthesis (soybean (cv Bayfield) [1]; 10^−11 M, day 2 after treatment): 8.7 μmol m^−2 sec^−1
- photosynthesis (soybean (cv Bayfield) [1]; 10^−11 M, day 4 after treatment): 17.4 μmol m^−2 sec^−1
- photosynthesis (soybean (cv Bayfield) [1]; 10^−11 M, day 5 after treatment): 17.9 μmol m^−2 sec^−1
- photosynthesis (soybean (cv Bayfield) [1]; 10^−11 M, day 6 after treatment): 12.5 μmol m^−2 sec^−1
- photosynthesis (soybean (cv Bayfield) [1]; 10^−12 M, day 1 after treatment): 15.0 μmol m^−2 sec^−1
- photosynthesis (soybean (cv Bayfield) [1]; 10^−12 M, day 2 after treatment): 10.3 μmol m^−2 sec^−1
- photosynthesis (soybean (cv Bayfield) [1]; 10^−12 M, day 4 after treatment): 16.9 μmol m^−2 sec^−1
- photosynthesis (soybean (cv Bayfield) [1]; 10^−12 M, day 5 after treatment): 17.0 μmol m^−2 sec^−1
- photosynthesis (soybean (cv Bayfield) [1]; 10^−12 M, day 6 after treatment): 12.0 μmol m^−2 sec^−1
- increase in photosynthetic rate (soybean (cv Bayfield) [1]; LCO spray, greenhouse, on an average): 50%
- Leaf area (soybean (cv Bayfield) [2]; 10^−6 M): 223.6 cm^2
- Shoot dry weight (soybean (cv Bayfield) [2]; 10^−6 M): 1065.8 mg
- Leaf area (soybean (cv Bayfield) [2]; 10^−7 M): 193.6 cm^2
- Shoot dry weight (soybean (cv Bayfield) [2]; 10^−7 M): 1135.2 mg
- Leaf area (soybean (cv Bayfield) [2]; 10^−8 M): 217.6 cm^2
- Shoot dry weight (soybean (cv Bayfield) [2]; 10^−8 M): 1095.7 mg
- Leaf area (soybean (cv Bayfield) [2]; 10^−9 M): 194.3 cm^2
- Shoot dry weight (soybean (cv Bayfield) [2]; 10^−9 M): 999.9 mg
- Leaf area (soybean (cv Bayfield) [2]; 10^−10 M): 195.3 cm^2
- Shoot dry weight (soybean (cv Bayfield) [2]; 10^−10 M): 1012.3 mg
- Leaf area (soybean (cv Bayfield) [2]; 10^−11 M): 202.6 cm^2
- Shoot dry weight (soybean (cv Bayfield) [2]; 10^−11 M): 931.6 mg
- Leaf area (soybean (cv Bayfield) [2]; 10^−12 M): 230.3 cm^2
- Shoot dry weight (soybean (cv Bayfield) [2]; 10^−12 M): 1060.8 mg
- shoot dry weights vs control plants (soybean (cv Bayfield) [2]; p<0.05): higher
- leaf areas vs control plants (soybean (cv Bayfield) [2]; p=0.09): only increased numerically
- intercellular CO2 concentration [3]: unaffected
- stomatal conductance [3]: increases
- transpiration [3]: increases
- increase in photosynthesis ([3]; in general): 10-20%
- intercellular CO2 concentration [4]: unaffected
- stomatal conductance [4]: increases
- transpiration [4]: increases
- increase in photosynthesis ([4]; in general): 10-20%
- intercellular CO2 concentration [5]: unaffected
- stomatal conductance [5]: increases
- transpiration [5]: increases
- increase in photosynthesis ([5]; in general): 10-20%
- Ci (apple (cv Empire)): without any effect
- stomatal conductance (apple (cv Empire)): increases
- transpiration (apple (cv Empire)): increased
- photosynthetic rate (apple (cv Empire); 10^−8 M LCO, five days after treatment): 14.1 μmol CO2 m^−2s^−1
